Experimental data as given in patent publication US20260284066A1, “TYK2 INHIBITORS AND COMPOSITIONS AND METHODS THEREOF” (LYNK PHARMACEUTICALS CO. LTD., priority 2023, published 2026).
pIC50: −log10 of the molar value. Converted amounts (≈) assume the structure as drawn. Like-named read-outs stand apart in the source and are kept apart here.

Assays:
[1] = Microsomal metabolic stability assay; format: in vitro ADME, human; settings: for microsomal CLint at 1 µM / half-life at 1 µM: human, liver microsomes, pH 7.4, human liver microsomes 0.5 mg/mL; for microsomal CLint at 1 µM: read-out: Human LM Clint; for half-life at 1 µM: read-out: Human LM T½
Experimental: Microsomal Metabolic Stability Assay
Microsomes were pre-incubated with test compound or control compounds for 5 min at 37° C. in 100 mM potassium phosphate buffer, pH 7.4, 1.0 mM EDTA. The reaction was initiated by addition of 15 μL of the NADPH regenerating system to 30 μL of each incubation mixture per time point. The final incubation condition was composed of 0.5 mg/mL microsomal protein, 1 μM test article/positive control, 2 mM NADPH. The 0-minute samples were prepared by addition of a 30 μL aliquot of each incubation mixture to 135 μL quench reagent to precipitate proteins. And then a 15 μL aliquot of the NADPH regenerating system was added. At 5, 15, 30 and 45 minutes, the reaction will be stopped by the addition of cold acetonitrile solution containing internal standard. The samples taken at all time points were centrifuged at 5000×g for 15 minutes. 50 μL of supernatant are taken into 96-well assay plates pre-added with 50 μL ultrapure water, and then analyzed by LC/MS/MS.
Concentrations of test articles, control compounds in the samples were determined by using LC/MS/MS method. Plotting of the chromatograms and peak area integrations are carried out by Analyst (AB Sciex).
In the determination of the in vitro elimination constant (ke) of the control compounds, the analyte/internal standard peak area ratios will be converted to percentage remaining (% Remaining) with the following equation:
The CLint of microsomes was calculated using the formula: CLint (mic)=0.693/T1/2/mg microsome protein per mL. The slope was measured by the natural logarithm of the percentage of the residual compound and time, T1/2 was calculated according to the following formula.

TYK2-JH2 domain = target: T1, TYK2-JH2 domain (Homo sapiens, UniProt P29597); experiment: Binding activity test for TYK2 JH2 domain (Tb-antibody/tracer FRET); settings: for JAK1/TYK2 selectivity: ratio of JAK1 JH2 to TYK2 JH2 binding IC50; for pIC50: read-out: TYK2 JH2 Binding IC50
T1 construct: JAK1-JH2 domain or TYK2-JH2 domain enzyme
T1 sequence (P29597 589-875 limits assumed): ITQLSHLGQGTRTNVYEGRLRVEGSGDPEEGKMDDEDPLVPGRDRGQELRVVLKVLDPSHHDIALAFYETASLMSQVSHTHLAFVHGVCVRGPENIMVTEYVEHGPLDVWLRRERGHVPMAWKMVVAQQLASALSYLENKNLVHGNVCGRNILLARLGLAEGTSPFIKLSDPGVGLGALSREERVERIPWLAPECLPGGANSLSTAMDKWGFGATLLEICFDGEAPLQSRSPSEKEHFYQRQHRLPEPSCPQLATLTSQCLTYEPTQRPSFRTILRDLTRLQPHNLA

JAK1-JH2 domain = target: T2, JAK1-JH2 domain (Homo sapiens, UniProt P23458); experiment: Binding activity test for JAK1 JH2 domain (Tb-antibody/tracer FRET); settings: read-out: JAK1 JH2 Binding IC50
T2 construct: JAK1-JH2 domain or TYK2-JH2 domain enzyme
T2 sequence (P23458 583-855 limits assumed): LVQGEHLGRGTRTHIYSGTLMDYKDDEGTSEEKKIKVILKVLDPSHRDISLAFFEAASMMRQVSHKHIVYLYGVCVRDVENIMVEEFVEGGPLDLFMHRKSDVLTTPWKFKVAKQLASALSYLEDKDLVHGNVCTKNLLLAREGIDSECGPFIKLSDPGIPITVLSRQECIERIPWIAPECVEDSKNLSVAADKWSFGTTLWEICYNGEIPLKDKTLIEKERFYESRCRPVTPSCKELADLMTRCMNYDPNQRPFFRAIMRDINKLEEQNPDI
Experimental: Binding Activity test for JH2 domain of JAK and TYK2
75 nL DMSO for high control and low control.
For low control, add 5 μL/well assay buffer. […] After enzyme system prepared, add 5 μL of Tb-antibody solution into each wells of assay plate. […] After Tb-antibody added, also add 5 μL of tracer into the assay plate. […] Incubate for 60 mins at 25° C. firstly and then continue to incubate the plate at 4° C. overnight. Read by envision in FRET mode. The Luminescence value was recorded by a multi-label reader Envision (PerkinElmer). Inhibition Rate was calculated relative to vehicle (DMSO) treated control wells using following formula:
wherein • RLU_compound=the relative light unit of cells treated with test compounds • RLU_low control=the relative light unit of medium with DMSO only • RLU_high control=the relative light unit of cells treated with DMSO only

pSTAT1 = experiment: Phosphorylation inhibition of STAT in human whole blood (IFN-alpha stimulated, flow cytometry); format: cell-based; settings: T-cell, CD3+ T cells, read-out: pSTAT1 inhibition in hWB (IC50)
Experimental: Phosphorylation Inhibition of STAT in Human Whole Blood Testing: The inhibitory potential of test articles in human whole blood assay was evaluated by the method of flow cytometry. IFN-alpha will activate JAK1 and TYK2 kinase in T cells by binding to IFN receptors, and then lead to phosphorylation of STAT1 and STAT2. The phosphorylated STAT1 enter nuclear and promote transcription and expression of IFN-gamma. To evaluate the efficacy of TYK2i in T cells, freshly collected human whole blood will be stimulated with certain unit of human IFN-alpha (Universal Type I IFN (1MU), R&D, 11200-2) for 20 mins in incubator. After stimulation, fix cells with PhosflowTM Fix Buffer I (BD, 557870), and then collect fixed cells by centrifugation (500 g, 8 min). Wash cells once with pre-cooled PBS, and then permeabilize cells with cold Perm Buffer III buffer (BD, 558050) for 45 mins on ice. Collect cells by centrifugation (600 g, 8 min) and washed twice with cold PBS. Stain cells with anti-human CD3(FITC Mouse Anti-Human CD3, BD, 555332) and anti-pSTAT1_Y701 (Alexa Fluor 647 Mouse Anti-Stat1 ([…]), BD, 612597) antibodies. Detect pSTAT1 by flow cytometry (CytoFlex S) and analyze data with FlowJo and GraphPad Prism 8 software. IC50 values of test articles were determined using 4-parameter logistic equation.

TYK2 pathway = experiment: IFN-γ release in NK92 cells stimulated by IL-12 (ELISA); format: cell-based; settings: Homo sapiens, IL-12 2.5 ng/mL
Text: IFN-γ Release in NK92 Cells Stimulated by IL-12
Purpose: To evaluate the inhibition activity of TYK2 inhibitors in NK92 cells on TYK2 pathway through ELISA method.

Kinetic solubility = format: physicochemical; settings: 100 mM pH 7.4 phosphate buffer, 1% DMSO, room temperature, read-out: Kinetics Solubility_PBS7.4
Experimental: Aliquots of 8 μL of reference and test compound stock solutions (10 mM/5 mM) are added into 792 μL of 100 mM pH 7.4 phosphate buffer. The final DMSO concentration is 1%. Sample tubes are shaken for 2 hours at 1000 rpm at room temperature. Samples are centrifuged at 12000 rpm for 10 min to precipitate un-dissolved particles. And transfer the supernatants to a new tube or plate. Add 5 μL of samples (no diluted, 10 times diluted and 100 times diluted) and standard curve samples to 95 μL of ACN containing IS for LC-MS/MS analysis.

[2] = human liver microsomes 0.5 mg/mL, 1 μM

Row | Compound | microsomal CLint at 1 µM [1] [µL/min/mg] | half-life at 1 µM [1] [h] | JAK1/TYK2 selectivity (TYK2-JH2 domain) | pIC50 (TYK2-JH2 domain) | pIC50 (JAK1-JH2 domain) | pIC50 (pSTAT1) | pIC50 (TYK2 pathway) | solubility kinetic at 2 h (Kinetic solubility; aqueous buffer) [µM] | Human LM Clint [1, 2] [µL/min/mg] | Human LM T½ [1, 2] [h] | solubility kinetic at 2 h (Kinetic solubility) [µM]
1 | CNC(=O)c1cnc(NC(=O)C2CC2)cc1Nc1ncn2ncc(C#N)c2c1OC [Example 20, 4-((3-Cyano-4-methoxypyrazolo[1,5-c]pyrimidin-5-yl)amino)-6-(cyclopropanecarboxamido)-N-methylnicotinamide] | 39.2 | 0.589 | 63.62 | 9.52 | 7.71 | 6.78 | – | – | – | – | –
2 | [2H]C([2H])([2H])NC(=O)c1cnc(NC(=O)C2CC2)cc1Nc1ccn2ncc(Br)c2c1OC [Example 29, 4-((3-Bromo-4-methoxypyrazolo[1,5-a]pyridin-5-yl)amino)-6-(cyclopropanecarboxamido)-N-(methyl-d3)nicotinamide] | – | – | 42.0 | 9.73 | 8.10 | – | 7.49 | – | – | – | –
3 | [2H]C([2H])([2H])NC(=O)c1cnc(NC(=O)C2CC2)cc1Nc1ccc2cnn(CC(C)(F)F)c2c1OC [Example 2, 6-(Cyclopropanecarboxamido)-4-((1-(2,2-difluoropropyl)-7-methoxy-1H-indazol-6-yl)amino)-N-(methyl-d3)nicotinamide] | 53.8 | 0.429 | 78.97 | 9.62 | 7.72 | 6.48 | – | – | – | – | –
4 | [2H]C([2H])([2H])NC(=O)c1cnc(Nc2ccn(C)n2)cc1Nc1ncc2cnn(CC(C)(F)F)c2c1OC [Example 22, 4-((1-(2,2-Difluoropropyl)-7-methoxy-1H-pyrazolo[4,3-c]pyridin-6-yl)amino)-N-(methyl-d3)-6-((1-methyl-1H-pyrazol-3-yl)amino)nicotinamide] | 9.25 | 2.5 | 113.31 | 8.58 | 6.53 | – | – | 19.8 (≈ 9.39 µg/mL) | – | – | –
5 | [2H]C([2H])([2H])NC(=O)c1cnc(NC(=O)C2CC2)cc1Nc1ncc2cnn(C(C)C(F)(F)F)c2c1OC (single isomer, unassigned) [Example 3B, (S*)-6-(Cyclopropanecarboxamido)-4-((7-methoxy-1-(1,1,1-trifluoropropan-2-yl)-1H-pyrazolo[4,3-c]pyridin-6-yl)amino)-N-(methyl-d3)nicotinamide] | – | 4.33 | 141.36 | 9.09 | 6.94 | – | – | 12.8 (≈ 6.13 µg/mL) | 5.33 | – | –
6 | (R*)-6(Cyclopropanecarboxamido)-4((7-methoxy-1-(1,1,1-trifuoropropan-2-yl)-1H-pyrazolo[4,3-c]pyridin-6-yl)amino)-N-(methyl-d3)nicotinamide [Example 3A] | – | – | >34.94 | 8.07 | < 6.53 | – | – | – | 6.20 | 3.7278 | 19.05
7 | [2H]C([2H])([2H])NC(=O)c1cnc(NC(=O)C2CC2)cc1Nc1cc(F)c2ccn(CC)c2c1OC [Example 16, 6-(Cyclopropanecarboxamido)-4-((1-ethyl-4-fluoro-7-methoxy-1H-indol-6-yl)amino)-N-(methyl-d3)nicotinamide] | – | – | 70.10 | 10.08 | 8.24 | 6.66 | – | – | – | – | –
8 | [2H]C([2H])([2H])NC(=O)c1cnc(NC(=O)C2CC2)cc1Nc1ccc2ccn(C([2H])([2H])[2H])c2c1OC [Example 15, 6-(Cyclopropanecarboxamido)-4-((7-methoxy-1-(methyl-d3)-1H-indol-6-yl)amino)-N-(methyl-d3)nicotinamide] | – | – | 15.64 | 10.03 | 8.83 | 6.69 | – | – | – | – | –
9 | [2H]C([2H])([2H])NC(=O)c1cnc(NC(=O)C2CC2)cc1Nc1ncc2ncn(CC(C)(F)F)c2c1OC [Example 14, 6-(Cyclopropanecarboxamido)-4-((1-(2,2-difluoropropyl)-7-methoxy-1H-imidazo[4,5-c]pyridin-6-yl)amino)-N-(methyl-d3)nicotinamide] | 39.2 | 0.589 | 217.86 | 9.75 | 7.41 | – | – | 16.9 (≈ 7.82 µg/mL) | – | – | –
10 | [2H]C([2H])([2H])NC(=O)c1cnc(Nc2cc(CN3CCOCC3)n(C)n2)cc1Nc1ccc2cnn(CC#N)c2c1OC [Example 12, 4-((1-(Cyanomethyl)-7-methoxy-1H-indazol-6-yl)amino)-N-(methyl-d3)-6-((1-methyl-5-(morpholinomethyl)-1H-pyrazol-3-yl)amino)nicotinamide] | – | – | 8.55 | 9.72 | 8.79 | – | – | 7.21 (≈ 3.85 µg/mL) | – | – | –
11 | [2H]C([2H])([2H])NC(=O)c1cnc(NC(=O)[C@H]2C[C@H]2F)cc1Nc1ncc2cnn(CC(F)(F)F)c2c1OC [Example 10, 6-((1R,2R)-2-fluorocyclopropane-1-carboxamido)-4-((7-methoxy-1-(2,2,2-trifluoroethyl)-1H-pyrazolo[4,3-c]pyridin-6-yl)amino)-N-(methyl-d3)nicotinamide] | 4.49 | 5.15 | 86.04 | 9.39 | 7.45 | – | – | 29 (≈ 14 µg/mL) | – | – | –
12 | [2H]C([2H])([2H])NC(=O)c1cnc(NC(=O)C2CC2)cc1Nc1ccc2ncn(CC(F)(F)F)c2c1OC [Example 27, 6-(Cyclopropanecarboxamido)-4-((7-methoxy-1-(2,2,2-trifluoroethyl)-1H-benzo[d]imidazol-6-yl)amino)-N-(methyl-d3)nicotinamide] | – | – | >107.8 | 8.56 | < 6.53 | – | – | 44.2 (≈ 20.6 µg/mL) | – | – | –
13 | [2H]C([2H])([2H])NC(=O)c1cnc(NC(=O)[C@@H]2C[C@@H]2F)cc1Nc1ncc2cnn(CC(F)(F)F)c2c1OC [Example 9, 6-((1S,2S)-2-fluorocyclopropane-1-carboxamido)-4-((7-methoxy-1-(2,2,2-trifluoroethyl)-1H-pyrazolo[4,3-c]pyridin-6-yl)amino)-N-(methyl-d3)nicotinamide] | 5.42 | 4.27 | 166.08 | 9.67 | 7.45 | 6.56 | – | 38.2 (≈ 18.5 µg/mL) | – | – | –
